Laboratory results from PubChem BioAssay AID1919003 (Molecular Pharmacology Branch, DTP, NCI, 2023).

Tested on: 786-0 complex spheroids with HUVEC/MSC, growth % test/control
Test: Anticancer human tumor 786-0 cell line growth inhibition [AhR];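 also: compound exposure lasted seven days before the read-out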
Settings: for IC50: curve of first compound; for viability, T/C: stronger effect = lower value
How it was run: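 Complex tumor spheroids co-cultured with HUVEC and human MSC stroma; AhR antagonists tested in combination with standard-of-care and investigational agents. Top concentration at or near clinical Cmax (else 10 microM), half-log dilutions; growth expressed as percent test/control.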

[1] = second compound 0.1 µM, first compound 0.0316 µM
[2] = second compound 0.1 µM, first compound 0.1 µM
[3] = second compound 0.1 µM, first compound 0.316 µM
[4] = second compound 0.1 µM, first compound 1 µM
[5] = second compound 0.1 µM, first compound 3.16 µM
[6] = second compound 0.1 µM, first compound 10 µM
[7] = second compound 0.316 µM, first compound 0.0316 µM
[8] = second compound 0.316 µM, first compound 0.1 µM
[9] = second compound 0.316 µM, first compound 0.316 µM
[10] = second compound 0.316 µM, first compound 1 µM
[11] = second compound 0.316 µM, first compound 3.16 µM
[12] = second compound 0.316 µM, first compound 10 µM
[13] = second compound 1 µM, first compound 0.0316 µM
[14] = second compound 1 µM, first compound 0.1 µM
[15] = second compound 1 µM, first compound 0.316 µM
[16] = second compound 1 µM, first compound 1 µM
[17] = second compound 1 µM, first compound 3.16 µM
[18] = second compound 1 µM, first compound 10 µM
[19] = second compound 3.16 µM, first compound 0.0316 µM
[20] = second compound 3.16 µM, first compound 0.1 µM
[21] = second compound 3.16 µM, first compound 0.316 µM
[22] = second compound 3.16 µM, first compound 1 µM
[23] = second compound 3.16 µM, first compound 3.16 µM
[24] = second compound 3.16 µM, first compound 10 µM
[25] = second compound 10 µM, first compound 0.0316 µM
[26] = second compound 10 µM, first compound 0.1 µM
[27] = second compound 10 µM, first compound 0.316 µM
[28] = second compound 10 µM, first compound 1 µM
[29] = second compound 10 µM, first compound 3.16 µM
[30] = second compound 10 µM, first compound 10 µM
[31] = second compound 0.1 µM, first compound 0.00316 µM
[32] = second compound 0.1 µM, first compound 0.01 µM
[33] = second compound 0.316 µM, first compound 0.00316 µM
[34] = second compound 0.316 µM, first compound 0.01 µM
[35] = second compound 1 µM, first compound 0.00316 µM
[36] = second compound 1 µM, first compound 0.01 µM
[37] = second compound 3.16 µM, first compound 0.00316 µM
[38] = second compound 3.16 µM, first compound 0.01 µM
[39] = second compound 10 µM, first compound 0.00316 µM
[40] = second compound 10 µM, first compound 0.01 µM

Structure (SMILES)	IC50 (second compound 0.1 µM)	IC50 (second compound 0.316 µM)	IC50 (second compound 1 µM)	IC50 (second compound 3.16 µM)	IC50 (second compound 10 µM)	viability, T/C [1]	viability, T/C [2]	viability, T/C [3]	viability, T/C [4]	viability, T/C [7]	viability, T/C [8]	viability, T/C [9]	viability, T/C [10]	viability, T/C [13]	viability, T/C [14]	viability, T/C [15]	viability, T/C [16]	viability, T/C [19]	viability, T/C [20]	viability, T/C [21]	also measured
CC(C)c1c(-c2ccccc2)nc2c(C#N)c[nH]n2c1=O + Cc1ccccc1N=Nc1ccc(NC(=O)c2ccnn2C)c(C)c1	> 10000 nM	> 10000 nM	> 10000 nM	> 10000 nM	> 10000 nM	93.9%	99.9%	99.5%	101%	90.1%	93.4%	97.1%	95.5%	94.6%	92.8%	114%	98.6%	86.8%	85.3%	89.6%	viability, T/C [5]: 92.1%; viability, T/C [6]: 99%; viability, T/C [11]: 92.6%; viability, T/C [12]: 95.2%; viability, T/C [17]: 96.3%; viability, T/C [18]: 88.9%; viability, T/C [22]: 82.8%; viability, T/C [23]: 85%; viability, T/C [24]: 84.2%; viability, T/C [25]: 86.6%; viability, T/C [26]: 83.9%; viability, T/C [27]: 84.5%; viability, T/C [28]: 82.4%; viability, T/C [29]: 83.1%; viability, T/C [30]: 79.5%
CC1COCCN1c1cc(-c2ccnn2C)c2ccnc(-c3ccn[nH]3)c2n1 (stereo not given) + Cc1ccccc1N=Nc1ccc(NC(=O)c2ccnn2C)c(C)c1	196 nM	197 nM	211 nM	177 nM	155 nM	105%	86.9%	23.9%	8.22%	108%	86.2%	24.9%	8.15%	102%	92.5%	26.9%	7.53%	89.3%	77.7%	22.7%	viability, T/C [31]: 97.6%; viability, T/C [32]: 108%; viability, T/C [33]: 107%; viability, T/C [34]: 109%; viability, T/C [35]: 119%; viability, T/C [36]: 104%; viability, T/C [37]: 99.5%; viability, T/C [38]: 112%; viability, T/C [22]: 10.2%; viability, T/C [39]: 96.9%; viability, T/C [40]: 96.8%; viability, T/C [25]: 96.1%; viability, T/C [26]: 67.5%; viability, T/C [27]: 21.2%; viability, T/C [28]: 9.41%
COc1ccc([C@@H](O)c2cc(-c3ncnc4cc(N5CCOCC5)ccc34)c(F)cc2Cl)nn1 + Cc1ccccc1N=Nc1ccc(NC(=O)c2ccnn2C)c(C)c1	> 10000 nM	> 10000 nM	> 10000 nM	> 10000 nM	9480 nM	90.6%	96%	99.4%	102%	97.6%	102%	99.2%	100%	86.4%	93.3%	96%	105%	84.8%	87.1%	82.9%	viability, T/C [5]: 102%; viability, T/C [6]: 79.9%; viability, T/C [11]: 106%; viability, T/C [12]: 87.1%; viability, T/C [17]: 97.1%; viability, T/C [18]: 77.4%; viability, T/C [22]: 84.1%; viability, T/C [23]: 89.3%; viability, T/C [24]: 63.9%; viability, T/C [25]: 96.9%; viability, T/C [26]: 90.2%; viability, T/C [27]: 81.9%; viability, T/C [28]: 86.1%; viability, T/C [29]: 72.8%; viability, T/C [30]: 48.2%
COc1cccc2c1C(=O)c1c(O)c3c(c(O)c1C2=O)CC(O)(C(=O)CO)CC3OC1CC(N)C(O)C(C)O1 (stereo not given) + Cc1cncc(-c2nc(NCCc3c[nH]c4ccccc34)c3ncn(C(C)C)c3n2)c1	158 nM	145 nM	133 nM	< 31.6 nM	< 31.6 nM	82.8%	63.1%	30.3%	8.19%	90%	61.4%	25.7%	7.63%	62.5%	60.2%	21.3%	5.04%	39.4%	25.2%	7.66%	viability, T/C [5]: 0.99%; viability, T/C [6]: 0.52%; viability, T/C [11]: 0.45%; viability, T/C [12]: 0.37%; viability, T/C [17]: 0.27%; viability, T/C [18]: 0.34%; viability, T/C [22]: 2.14%; viability, T/C [23]: 0.12%; viability, T/C [24]: 0.3%; viability, T/C [25]: 1.2%; viability, T/C [26]: 0.79%; viability, T/C [27]: 1.52%; viability, T/C [28]: 0.23%; viability, T/C [29]: 0.21%; viability, T/C [30]: 1.26%
Nc1ncn(C2CC(O)C(CO)O2)c(=O)n1 (stereo not given) + Cc1cncc(-c2nc(NCCc3c[nH]c4ccccc34)c3ncn(C(C)C)c3n2)c1	> 1000 nM	> 1000 nM	> 1000 nM	> 1000 nM	< 3.16 nM	118%	115%	106%	95.8%	117%	127%	113%	103%	123%	112%	99%	96.9%	78.5%	90.4%	85.4%	viability, T/C [31]: 123%; viability, T/C [32]: 115%; viability, T/C [33]: 116%; viability, T/C [34]: 128%; viability, T/C [35]: 124%; viability, T/C [36]: 116%; viability, T/C [37]: 77.5%; viability, T/C [38]: 80.4%; viability, T/C [22]: 76.2%; viability, T/C [39]: 8.18%; viability, T/C [40]: 13.5%; viability, T/C [25]: 11.1%; viability, T/C [26]: 9.3%; viability, T/C [27]: 8.63%; viability, T/C [28]: 10.9%
